These results are taken from PMC7190413 (Journal of cystic fibrosis : official journal of the …, 2019).

Read-outs that look alike come from different tables or passages of the source.

The target in experiment [1] is T1, G551D-CFTR (Homo sapiens, UniProt P13569, G551D). In words: Fractional PM activity. Format: cell-based. As to conditions: CFBE; forskolin-stimulated, mono-therapy or dual potentiator treatment; Fig. 5d.
Experiment [2] addresses T1, G551D-CFTR. In words: Short-circuit current. Format: cell-based. As to conditions: for forskolin-activated Isc relative to that of WT-CFTR: forskolin 20 μM.
For experiment [3], the system named is S1251N-CFTR. In words: Fractional PM activity. The class given is cell-based, human. As to conditions: CFBE; forskolin plus single potentiator; Fig. 5f.
Experiment [4] has as its target T1, G551D-CFTR. Description: Single-channel activity in reconstituted planar phospholipid bilayer. The class given is biochemical. As to conditions: PKA-activated, 28–30°C.
The target of experiment [5] is T1, G551D-CFTR. Description: Short-circuit current. The class given is cell-based. As to conditions: CFBE; forskolin 20 μM then acute VX-770 10 μM; Fig. 5a,b.

T1 sequence (P13569 whole entry G551D): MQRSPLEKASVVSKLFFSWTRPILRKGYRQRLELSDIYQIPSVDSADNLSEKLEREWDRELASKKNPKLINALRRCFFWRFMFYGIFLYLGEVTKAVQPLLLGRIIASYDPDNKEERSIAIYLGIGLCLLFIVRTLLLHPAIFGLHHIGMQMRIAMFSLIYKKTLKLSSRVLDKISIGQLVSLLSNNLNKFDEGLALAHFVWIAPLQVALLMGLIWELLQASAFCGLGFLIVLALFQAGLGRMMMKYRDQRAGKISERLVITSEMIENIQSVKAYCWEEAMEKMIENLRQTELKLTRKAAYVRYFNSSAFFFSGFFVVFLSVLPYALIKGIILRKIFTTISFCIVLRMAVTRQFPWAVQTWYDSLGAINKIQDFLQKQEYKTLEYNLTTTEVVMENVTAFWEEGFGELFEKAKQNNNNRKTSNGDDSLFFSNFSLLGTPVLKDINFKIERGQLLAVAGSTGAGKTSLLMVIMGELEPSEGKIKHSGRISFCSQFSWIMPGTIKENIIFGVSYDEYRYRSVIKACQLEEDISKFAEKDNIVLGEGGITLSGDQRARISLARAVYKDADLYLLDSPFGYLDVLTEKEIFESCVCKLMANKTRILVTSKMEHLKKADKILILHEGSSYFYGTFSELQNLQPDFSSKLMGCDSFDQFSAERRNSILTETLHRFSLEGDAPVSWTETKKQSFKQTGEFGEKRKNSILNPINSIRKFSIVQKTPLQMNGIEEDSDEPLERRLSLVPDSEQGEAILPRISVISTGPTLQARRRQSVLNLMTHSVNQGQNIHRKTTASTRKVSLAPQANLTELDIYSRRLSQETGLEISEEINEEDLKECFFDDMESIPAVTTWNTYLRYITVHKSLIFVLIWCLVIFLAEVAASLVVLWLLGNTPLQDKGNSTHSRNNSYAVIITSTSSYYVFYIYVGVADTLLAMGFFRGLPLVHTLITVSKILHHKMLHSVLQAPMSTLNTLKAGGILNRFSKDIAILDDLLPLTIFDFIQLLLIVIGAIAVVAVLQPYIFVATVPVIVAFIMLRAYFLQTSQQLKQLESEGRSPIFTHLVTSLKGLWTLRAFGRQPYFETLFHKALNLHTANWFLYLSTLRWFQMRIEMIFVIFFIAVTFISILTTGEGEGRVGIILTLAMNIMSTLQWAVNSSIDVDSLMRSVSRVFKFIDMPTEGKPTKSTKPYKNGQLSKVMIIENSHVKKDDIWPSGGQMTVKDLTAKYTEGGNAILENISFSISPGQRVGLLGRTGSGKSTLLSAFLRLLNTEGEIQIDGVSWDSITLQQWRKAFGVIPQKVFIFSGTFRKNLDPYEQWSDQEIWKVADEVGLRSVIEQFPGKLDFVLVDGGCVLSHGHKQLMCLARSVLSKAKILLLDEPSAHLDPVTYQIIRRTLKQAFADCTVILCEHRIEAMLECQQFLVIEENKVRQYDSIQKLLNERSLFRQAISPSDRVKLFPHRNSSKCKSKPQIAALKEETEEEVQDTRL

As usually defined, the EC50 is the concentration at which the effect is half-maximal. For the molecule `CC1(C)Cc2c(sc(NC(=O)c3ccn[nH]3)c2C(N)=O)C(C)(C)O1` [ABBV-974], in experiment [1], the “fractional PM activity of G551D, of the WT” value amounted to 7%. Besides, in experiment [2] (HNE, G551D-CFTR, Isc EC50), the “lower potency in comparison to VX-770” value was 7 fold. In experiment [2] (read-out: EC50 for G551D-CFTR potentiation, HNE, Isc, Supplementary Fig. 6e,f), the 50% effective concentration (EC50) is ~300 nM. Besides, in experiment [3], the “fractional PM activity of S1251N after single potentiator therapy, of WT” value is ~ 80%.

As for `CC(C)(C)c1cc(C(C)(C)C)c(NC(=O)c2c[nH]c3ccccc3c2=O)cc1O` [VX-770, ivacaftor], the “open probability (Po) of phosphorylated G551D-CFTR” value in experiment [4] (3 μM VX-770) was ~ 0.08. Also, the “G551D-CFTR Isc, of WT-function” value in experiment [5] is reported as ~ 6%. Further, the “fractional PM activity of G551D, of the WT” value in experiment [1] was 6%. Moreover, the EC50 in experiment [2] was ~40 nM. In addition, the “forskolin-activated Isc relative to that of WT-CFTR” value is recorded as ~ 50% in experiment [2] (HNE with G551D on both alleles) and ~ 25% in experiment [2] (HNE with one copy of G551D). In experiment [3], the “fractional PM activity of S1251N after single potentiator therapy, of WT” value is ~ 80%.

Take `O=c1cc(-c2ccc(O)cc2)oc2cc(O)cc(O)c12` [apigenin]: the “open probability (Po) of phosphorylated G551D-CFTR upon addition of apigenin” value in experiment [4] (50 μM apigenin in the presence of 3 μM VX-770) worked out at 0.14.
